Measured values as given in patent US20150132328A1 (priority 2011, published 2015).
Like-named read-outs stand apart in the source and are kept apart here.

Assays:
LR.4 lymphoma = conditions: LR.4 + IMMP
Text: Thymus and spleen were studied since they correspond to lymphatic organs, liver which corresponds to the main organ to which the metastases of abdominal tumors and kidney are directed are directed by their high blood irrigation.

newborn rat thymocytes = test system: newborn rat thymocytes
Text: It was used an octapeptide with similar weight for the elaboration of the complex, to which was just the proline (4) and Glycine (5) original amino acids were interchanged by proline (4) and Glycine (5) resulting as […].

LR.4 cells = test system: LR.4 cells
Text: (§1) The cellular viability that was quantified by the MTT method, indicates the mitochondrial activity.

BMK-16myc cells = test system: BMK-16myc cells
Text: We used BMK-16myc cells which are baby mouse kidney cells immortalized with genes of 16 protein of the human papilloma virus (HPV) and the myc gene, which grow in mouse, are highly invasive and produce metastases rapidly. One million cells were implanted subcutaneously in the back of each mouse. […] Subsequently, the animals were sacrificed and the tumors under the back skin as well as thymus, spleen, liver and kidney were collected for histopathological examination.
as §1

CD4 co-receptor = conditions: With-A
Protocol: (§2) The Analysis was performed by flow cytometry, using fluorescence intensity histograms, which allowed us to identify three regions: expression negative, low and high.

CD8 co-receptor = conditions: With-A
Protocol: as §2

## Peptide LEDGPKFL + Zinc [IMMP]
LR.4 lymphoma; Kidney
  Metastases (animals with metastases detected/total number of animals): 0/5
LR.4 lymphoma; Liver
  Metastases (animals with metastases detected/total number of animals): 0/5
LR.4 lymphoma; Spleen
  Metastases (animals with metastases detected/total number of animals): 0/5
LR.4 lymphoma; Thymus
  Metastases (animals with metastases detected/total number of animals): 0/5
Human lymphocytes
  Concentrations that increased the proliferative response: 10-10 M
Newborn rat thymocytes; 10^-10 M, With-A
  Increase of thymocytes proliferation: 35%
Newborn rat thymocytes; 10^−6 (918 ng/mL), 24 hours
  Proliferation (% with respect to the control): 106.6 ± 3.0%
Newborn rat thymocytes; 10^−6 (918 ng/mL), Con A 50 pg/mL
  Proliferation (% with respect to the control): 126.6 ± 3.0%
Newborn rat thymocytes; 10^−7 (91.8 ng/mL), 24 hours
  Proliferation (% with respect to the control): 125.1 ± 2.6 %
Newborn rat thymocytes; 10^−7 (91.8 ng/mL), Con A 50 pg/mL
  Proliferation (% with respect to the control): 125.1 ± 2.6 %
Newborn rat thymocytes; 10^−7.5 (9.58 ng/mL), Con A 50 pg/mL
  Proliferation (% with respect to the control): 127.4 ± 3.0 %
Newborn rat thymocytes; 10^−8 (9.18 ng/mL), 24 hours
  Proliferation (% with respect to the control): 120.3 ± 2.7 %
Newborn rat thymocytes; 10^−8 (9.18 ng/mL), Con A 50 pg/mL
  Proliferation (% with respect to the control): 128.3 ± 2.7 %
Newborn rat thymocytes; 10^−9 (0.91 ng/mL), 24 hours
  Proliferation (% with respect to the control): 123.3 ± 3.4 %
Newborn rat thymocytes; 10^−9 (0.91 ng/mL), Con A 50 pg/mL
  Proliferation (% with respect to the control): 133.3 ± 3.4 %
Newborn rat thymocytes; 10^−10 (0.09 ng/mL), 24 hours
  Proliferation (% with respect to the control): 135.6 ± 3.1 %
Newborn rat thymocytes; 10^−10 (0.09 ng/mL), Con A 50 pg/mL
  Proliferation (% with respect to the control): 135.6 ± 3.1 %
Newborn rat thymocytes; 10^−11 (0.009 ng/mL), 24 hours
  Proliferation (% with respect to the control): 130.5 ± 1.4 %
Newborn rat thymocytes; 10^−11 (0.009 ng/mL), Con A 50 pg/mL
  Proliferation (% with respect to the control): 130.5 ± 1.4 %
Newborn rat thymocytes; 10^−12 (0.0009 ng/mL), Con A 50 pg/mL
  Proliferation (% with respect to the control): 120.3 ± 3.2 %
LR.4 cells
  Increase of LR.4 cells: 20%
LR.4 cells; IMMP (M) −8
  Cells proliferation (control percent, MTT): 115 ± 5.4 %
LR.4 cells; IMMP (M) −9
  Cells proliferation (control percent, MTT): 118 ± 6.7 %
LR.4 cells; IMMP (M) −10
  Cells proliferation (control percent, MTT): 120 ± 8.5 %
LR.4 cells; IMMP (M) −11
  Cells proliferation (control percent, MTT): 110 ± 10.9 %
LR.4 cells; IMMP (M) −12
  Cells proliferation (control percent, MTT): 104 ± 4.3%
BMK-16myc cells
  Difference with respect to control: not observed any difference with respect to control
BMK-16myc cells; IMMP (M) −8
  Cells proliferation (control percent, MTT): 102 ± 2.9%
BMK-16myc cells; IMMP (M) −9
  Cells proliferation (control percent, MTT): 104 ± 3.1%
BMK-16myc cells; IMMP (M) −10
  Cells proliferation (control percent, MTT): 102 ± 3.5%
BMK-16myc cells; IMMP (M) −11
  Cells proliferation (control percent, MTT): 103 ± 2.7%
BMK-16myc cells; IMMP (M) −12
  Cells proliferation (control percent, MTT): 102 ± 3.1%
CD4 co-receptor; [IMMP] 10^−6 M
  Expression Intensity of CD4, Fluorescence, High: 193.0 ± 3.3 arbitrary fluorescence intensity units
  Expression Intensity of CD4, Fluorescence, Low: 72.9 ± 7.4 arbitrary fluorescence intensity units
  Expression Intensity of CD4, Fluorescence, Negative: 5.0 ± 0.9 arbitrary fluorescence intensity units
CD4 co-receptor; [IMMP] 10^−7 M
  Expression Intensity of CD4, Fluorescence, High: 188.4 ± 4.9 arbitrary fluorescence intensity units
  Expression Intensity of CD4, Fluorescence, Low: 68.6 ± 8.0 arbitrary fluorescence intensity units
  Expression Intensity of CD4, Fluorescence, Negative: 4.5 ± 0.9 arbitrary fluorescence intensity units
CD4 co-receptor; [IMMP] 10^−8 M
  Expression Intensity of CD4, Fluorescence, High: 181.1 ± 4.7 arbitrary fluorescence intensity units
  Expression Intensity of CD4, Fluorescence, Low: 71.0 ± 6.4 arbitrary fluorescence intensity units
  Expression Intensity of CD4, Fluorescence, Negative: 4.7 ± 0.3 arbitrary fluorescence intensity units
CD4 co-receptor; [IMMP] 10^−9 M
  Expression Intensity of CD4, Fluorescence, High: 196.1 ± 5.4 arbitrary fluorescence intensity units
  Expression Intensity of CD4, Fluorescence, Low: 69.5 ± 5.0 arbitrary fluorescence intensity units
  Expression Intensity of CD4, Fluorescence, Negative: 4.5 ± 0.1 arbitrary fluorescence intensity units
CD4 co-receptor; [IMMP] 10^−10 M
  Expression Intensity of CD4, Fluorescence, High: 194.1 ± 10.0 arbitrary fluorescence intensity units
  Expression Intensity of CD4, Fluorescence, Low: 69.6 ± 5.2 arbitrary fluorescence intensity units
  Expression Intensity of CD4, Fluorescence, Negative: 5.0 ± 0.4 arbitrary fluorescence intensity units
CD4 co-receptor; [IMMP] 10^−11 M
  Expression Intensity of CD4, Fluorescence, High: 196.1 ± 5.4 arbitrary fluorescence intensity units
  Expression Intensity of CD4, Fluorescence, Low: 69.5 ± 7.0 arbitrary fluorescence intensity units
  Expression Intensity of CD4, Fluorescence, Negative: 4.5 ± 0.1 arbitrary fluorescence intensity units
CD4 co-receptor; [IMMP] 10^−12 M
  Expression Intensity of CD4, Fluorescence, High: 194.1 ± 7.3 arbitrary fluorescence intensity units
  Expression Intensity of CD4, Fluorescence, Low: 69.6 ± 7.2 arbitrary fluorescence intensity units
  Expression Intensity of CD4, Fluorescence, Negative: 5.0 ± 0.4 arbitrary fluorescence intensity units
CD8 co-receptor; [IMMP] 10^−6 M
  Expression Intensity of CD8, Fluorescence, High: 135.9 ± 3.3 arbitrary fluorescence intensity units
  Expression Intensity of CD8, Fluorescence, Low: 49.9 ± 37.4 arbitrary fluorescence intensity units
  Expression Intensity of CD8, Fluorescence, Negative: 3.1 ± 0.5 arbitrary fluorescence intensity units
CD8 co-receptor; [IMMP] 10^−7 M
  Expression Intensity of CD8, Fluorescence, High: 134.5 ± 4.9 arbitrary fluorescence intensity units
  Expression Intensity of CD8, Fluorescence, Low: 55.1 ± 4.9 arbitrary fluorescence intensity units
  Expression Intensity of CD8, Fluorescence, Negative: 2.4 ± 0.9 arbitrary fluorescence intensity units
CD8 co-receptor; [IMMP] 10^−8 M
  Expression Intensity of CD8, Fluorescence, High: 126.1 ± 4.7 arbitrary fluorescence intensity units
  Expression Intensity of CD8, Fluorescence, Low: 39.2 ± 5.4 arbitrary fluorescence intensity units
  Expression Intensity of CD8, Fluorescence, Negative: 3.2 ± 0.3 arbitrary fluorescence intensity units
CD8 co-receptor; [IMMP] 10^−9 M
  Expression Intensity of CD8, Fluorescence, High: 139.8 ± 5.4 arbitrary fluorescence intensity units
  Expression Intensity of CD8, Fluorescence, Low: 32.7 ± 5.0 arbitrary fluorescence intensity units
  Expression Intensity of CD8, Fluorescence, Negative: 3.2 ± 0.1 arbitrary fluorescence intensity units
CD8 co-receptor; [IMMP] 10^−10 M
  Expression Intensity of CD8, Fluorescence, High: 126.5 ± 7.3 arbitrary fluorescence intensity units
  Expression Intensity of CD8, Fluorescence, Low: 45.8 ± 3.2 arbitrary fluorescence intensity units
